Experimental data from patent US10723692B2, “Lipids and lipid nanoparticle formulations for delivery of nucleic acids” (Acuitas Therapeutics, Inc., priority 2014, dated 2020).
Where two headings read alike, the source gives them in different places.

How the values were obtained:
[1] = system: luciferase expression in the liver; assay: In vivo luciferase mRNA expression rodent model (LNP, liver luciferase); parameters: species or system C57BL/6 mice; conditions: tail vein, liver 4 hours; for Liver Luc @ 0.3 mg/kg (ng luc/g liver): 0.3 mg mRNA/kg; for Liver Luc @ 1.0 mg/kg (ng luc/g liver): 1.0 mg mRNA/kg
Protocol: Cationic lipid (MC3), DSPC, cholesterol and PEG-lipid were solubilized in ethanol at a molar ratio of 50:10:38.5:1.5. Lipid nanoparticles (LNP) were prepared at a total lipid to mRNA weight ratio of approximately 10:1 to 30:1. Briefly, the mRNA was diluted to 0.2 mg/mL in 10 to 50 mM citrate buffer, pH 4. Syringe pumps were used to mix the ethanolic lipid solution with the mRNA aqueous solution at a ratio of about 1:5 to 1:3 (vol/vol) with total flow rates above 15 ml/min. The ethanol was then removed and the external buffer replaced with PBS by dialysis. Finally, the lipid nanoparticles were filtered through a 0.2 μm pore sterile filter. Lipid nanoparticle particle size was 70-90 nm diameter as determined by quasi-elastic light scattering using a Nicomp 370 submicron particle sizer (Santa Barbara, Calif.).
Studies were performed in 6-8 week old female C57BL/6 mice (Charles River) according to guidelines established by an institutional animal care committee (ACC) and the Canadian Council on Animal Care (CCAC). Varying doses of mRNA-lipid nanoparticle were systemically administered by tail vein injection and animals euthanized at specific time points (1, 2, 4, 8 and 24 hrs) post-administration. Liver and spleen were collected in pre-weighted tubes, weights determined, immediately snap frozen in liquid nitrogen and stored at −80° C. until processing for analysis.
For liver, approximately 50 mg was dissected for analyses in a 2 mL FastPrep tubes (MP Biomedicals, Solon Ohio). ¼″ ceramic sphere (MP Biomedicals) was added to each tube and 500 μL of Glo Lysis Buffer—GLB (Promega, Madison Wis.) equilibrated to room temperature was added to liver tissue. Liver tissues were homogenized with the FastPrep24 instrument (MP Biomedicals) at 2×6.0 m/s for 15 seconds. Homogenate was incubated at room temperature for 5 minutes prior to a 1:4 dilution in GLB and assessed using SteadyGlo Luciferase assay system (Promega). Specifically, 50 μL of diluted tissue homogenate was reacted with 50 μL of SteadyGlo substrate, shaken for 10 seconds followed by 5 minute incubation and then quantitated using a CentroXS^3 LB 960 luminometer (Berthold Technologies, Germany). The amount of protein assayed was determined by using the BCA protein assay kit (Pierce, Rockford Ill.). Relative luminescence units (RLU) were then normalized to total ug protein assayed. To convert RLU to ng luciferase a standard curve was generated with QuantiLum Recombinant Luciferase (Promega). Based in the data provided in FIG. 1, the four-hour time point was chosen for efficacy evaluation of the lipid formulations (see EXAMPLE 48).
The FLuc mRNA (L-6107) from Trilink Biotechnologies will express a luciferase protein, originally isolated from the firefly, Photinus pyralis. FLuc is commonly used in mammalian cell culture to measure both gene expression and cell viability. It emits bioluminescence in the presence of the substrate, luciferin. This capped and polyadenylated mRNA is fully substituted with 5-methylcytidine and pseudouridine.
The cationic lipids shown in Table 2 have previously been tested with nucleic acids. For comparative purposes, these lipids were also used to formulate lipid nanoparticles containing the FLuc mRNA (L-6107) using an in line mixing method, as described in EXAMPLE 47 and in PCT/US10/22614, which is hereby incorporated by reference in its entirety. Lipid nanoparticles were formulated using the following molar ratio: 50% Cationic lipid/10% distearoylphosphatidylcholine (DSPC)/38.5% Cholesterol/1.5% PEG lipid (“PEG-DMG”, i.e., (1-(monomethoxy-polyethyleneglycol)-2,3-dimyristoylglycerol, with an average PEG molecular weight of 2000). Relative activity was determined by measuring luciferase expression in the liver 4 hours following administration via tail vein injection as described in EXAMPLE 47. The activity was compared at a dose of 0.3 and 1.0 mg mRNA/kg and expressed as ng luciferase/g liver measured 4 hours after administration, as described in EXAMPLE 47. […]

[2] = pKa of formulated cationic lipids in lipid nanoparticles (TNS fluorescence assay); assay type: physicochemical; conditions: read-out: pKa
Protocol: As described elsewhere, the pKa of formulated cationic lipids is correlated with the effectiveness of LNPs for delivery of nucleic acids (see Jayaraman et al, Angewandte Chemie, International Edition (2012), 51(34), 8529-8533; Semple et al, Nature Biotechnology 28, 172-176 (2010)). The preferred range of pKa is ˜5 to ˜7. […] Lipid nanoparticles comprising of cationic lipid/DSPC/cholesterol/PEG-lipid (50/10/38.5/1.5 mol %) in PBS at a concentration of 0.4 mM total lipid are prepared using the in-line process as described in EXAMPLE 47. TNS was prepared as a 100 μM stock solution in distilled water. Vesicles were diluted to 24 μM lipid in 2 mL of buffered solutions containing, 10 mM HEPES, 10 mM MES, 10 mM ammonium acetate, 130 mM NaCl, where the pH ranged from 2.5 to 11. An aliquot of the TNS solution was added to give a final concentration of 1 μM and following vortex mixing fluorescence intensity was measured at room temperature in a SLM Aminco Series 2 Luminescence Spectrophotometer using excitation and emission wavelengths of 321 nm and 445 nm. A sigmoidal best fit analysis was applied to the fluorescence data and the pKa was measured as the pH giving rise to half-maximal fluorescence intensity (see FIG. 2).

[3] = Table 6, LNP with 1.5% PEG-lipid (42-6)
[4] = Table 3, LNP with 1.5% PEG-DMA (42-6), FLuc mRNA
[5] = Table 3, in LNP cationic lipid/DSPC/cholesterol/PEG-lipid 50/10/38.5/1.5 mol %

SMILES | Liver Luc @ 0.3 mg/kg (ng luc/g liver) [1, 3] | Liver Luc @ 1.0 mg/kg (ng luc/g liver) [1, 3] | pKa ([2]; Table 5, in LNP) | pKa ([2]; Table 6, in LNP) | Liver Luc @ 0.3 mg/kg (ng luc/g liver) [1, 4] | Liver Luc @ 1.0 mg/kg (ng luc/g liver) [1, 4] | pKa [2, 5]
CCCCC/C=C\C/C=C\CCCCCCCCN(CCCCCCCC/C=C\C/C=C\CCCCC)CCN(C)C [A, reference compound] | 77 ± 40 ng luc/g liver | 203 ± 122 ng luc/g liver | 6.26 | – | – | – | –
CCCCC/C=C\C/C=C\CCCCCCCCN(CCCCCCCC/C=C\C/C=C\CCCCC)CCCN(C)C [B, reference compound] | 3 ± 0.8 ng luc/g liver | 12 ± 4 ng luc/g liver | – | 6.68 | – | – | –
CCCCC/C=C\C/C=C\CCCCCCCCN(CCCCCCCC/C=C\C/C=C\CCCCC)CCCCN(C)C [C, reference compound] | 2 ± 0.5 ng luc/g liver | 7 ± 2 ng luc/g liver | – | 7.32 | – | – | –
C/C(=C\COC(=O)CCCCCN(CCCCCC(=O)OC/C=C(\C)CCCC(C)CCCC(C)CCCC(C)C)CCN(C)C)CCCC(C)CCCC(C)CCCC(C)C (stereo not drawn) [Compound 2] | – | – | – | – | 23 ± 6 ng luc/g liver | 84 ± 24 ng luc/g liver | 5.64
C/C(=C\COC(=O)CN(CCN(C)C)CC(=O)OC/C=C(\C)CCCC(C)CCCC(C)CCCC(C)C)CCCC(C)CCCC(C)CCCC(C)C (stereo not drawn) [Compound 3] | – | – | – | – | 1.5 ± 0.6 ng luc/g liver | 0.32 ± 0.1 ng luc/g liver | 7.15
CCCCC(CC)C(=O)OCCCCCCCCCCCCN(CCCCCCCCCCCCOC(=O)C(CC)CCCC)CCN(C)C (stereo not drawn) [Compound 4] | – | – | – | – | 53 ± 10 ng luc/g liver | 126 ± 102 ng luc/g liver | 6.43
CCCCCC(CCCC)OC(=O)CCCCCCCCCN(CCCCCCCCCC(=O)OC(CCCC)CCCCC)CCN(C)C (stereo not drawn) [Compound 11] | – | – | – | – | 328 ± 12 ng luc/g liver | 1266 ± 522 ng luc/g liver | 6.36
CCCCCCCCOC(=O)CCCCCCCCCN(CCCCCCCCCC(=O)OCCCCCCCC)CCN(C)C [Compound 13] | – | – | – | – | 16 ± 4 ng luc/g liver | 20 ± 20 ng luc/g liver | 6.51
CCCCCCCCCCCOC(=O)CCCCCCCCCN(CCCCCCCCCC(=O)OCCCCCCCCCCC)CCN(C)C [Compound 15] | – | – | – | – | 66 ± 32 ng luc/g liver | 243 ± 71 ng luc/g liver | 6.3
CCCCCCCCCCCOC(=O)CCCCCCCN(CCCCCCCC(=O)OCCCCCCCCCCC)CCN(C)C [Compound 16] | – | – | – | – | 7 ± 1 ng luc/g liver | 14 ± 4 ng luc/g liver | 6.63
CCCCCCCC/C=C/COC(=O)CCCCCCCN(CCCCCCCC(=O)OC/C=C/CCCCCCCC)CCN(C)C [Compound 19] | – | – | – | – | 8 ± 3 ng luc/g liver | 15 ± 21 ng luc/g liver | 6.72
CCCCCCC(CCCC)COC(=O)CCCCCCCN(CCCCCCCC(=O)OCC(CCCC)CCCCCC)CCN(C)C (stereo not drawn) [Compound 20] | – | – | – | – | 301 ± 155 ng luc/g liver | 501 ± 96 ng luc/g liver | 6.44
CCCCCCC(CCCC)COC(=O)CCCCCCCCCN(CCCCCCCCCC(=O)OCC(CCCC)CCCCCC)CCN(C)C (stereo not drawn) [Compound 21] | – | – | – | – | 404 ± 103 ng luc/g liver | 4149 ± 2514 ng luc/g liver | 6.28
CCCCCCCCC(CCCCCC)COC(=O)CCCCCN(CCCCCC(=O)OCC(CCCCCC)CCCCCCCC)CCN(C)C (stereo not drawn) [Compound 22] | – | – | – | – | 2126 ± 294 ng luc/g liver | 14486 ± 6607 ng luc/g liver | 6.53
CCCCCCCCC(CCCCCC)COC(=O)CCCCCCCN(CCCCCCCC(=O)OCC(CCCCCC)CCCCCCCC)CCN(C)C (stereo not drawn) [Compound 23] | – | – | – | – | 1109 ± 209 ng luc/g liver | 4568 ± 762 ng luc/g liver | 6.24
CCCCCCCCCCC(C)OC(=O)CCCCCCCCCN(CCCCCCCCCC(=O)OC(C)CCCCCCCCCC)CCN(C)C (stereo not drawn) [Compound 24] | – | – | – | – | 1094 ± 180 ng luc/g liver | 6928 ± 1015 ng luc/g liver | 6.28
CCCCCCCCC(CCCCCC)COC(=O)CCCCCCCCCN(CCCCCCCCCC(=O)OCC(CCCCCC)CCCCCCCC)CCN(C)C (stereo not drawn) [Compound 25] | – | – | – | – | 901 ± 173 ng luc/g liver | 6223 ± 1714 ng luc/g liver | 6.2
CCCCC/C=C\C/C=C\CCCCCCCCOC(=O)CCCCCN(CCCCCC(=O)OCCCCCCCC/C=C\C/C=C\CCCCC)CCN(C)C [Compound 26] | – | – | – | – | 30 ± 5 ng luc/g liver | 55 ± 0.8 ng luc/g liver | 6.89
CCCCCCCCCCC(CCCCCCCC)COC(=O)CCCCCN(CCCCCC(=O)OCC(CCCCCCCC)CCCCCCCCCC)CCN(C)C (stereo not drawn) [Compound 27] | – | – | – | – | 724 ± 144 ng luc/g liver | 6636 ± 1230 ng luc/g liver | 6.3
CCCCCCCCCCC(CCCCCCCC)COC(=O)CCCCCCCN(CCCCCCCC(=O)OCC(CCCCCCCC)CCCCCCCCCC)CCN(C)C (stereo not drawn) [Compound 28] | – | – | – | – | 522 ± 86 ng luc/g liver | 4582 ± 1291 ng luc/g liver | 6.2
